This note sets out measurements from patent US8835428B2, “Diacylglycerol acyltransferase inhibitors” (Piramal Enterprises Limited, priority 2008, dated 2014).

Molecules are shown by their SMILES.

The target of the first assay is T1, hDGAT1 (Homo sapiens, UniProt O75907).
T1 construct: host or cells: Sf9 insect cells (baculovirus); microsomal preparation
T1 sequence (O75907 1-488): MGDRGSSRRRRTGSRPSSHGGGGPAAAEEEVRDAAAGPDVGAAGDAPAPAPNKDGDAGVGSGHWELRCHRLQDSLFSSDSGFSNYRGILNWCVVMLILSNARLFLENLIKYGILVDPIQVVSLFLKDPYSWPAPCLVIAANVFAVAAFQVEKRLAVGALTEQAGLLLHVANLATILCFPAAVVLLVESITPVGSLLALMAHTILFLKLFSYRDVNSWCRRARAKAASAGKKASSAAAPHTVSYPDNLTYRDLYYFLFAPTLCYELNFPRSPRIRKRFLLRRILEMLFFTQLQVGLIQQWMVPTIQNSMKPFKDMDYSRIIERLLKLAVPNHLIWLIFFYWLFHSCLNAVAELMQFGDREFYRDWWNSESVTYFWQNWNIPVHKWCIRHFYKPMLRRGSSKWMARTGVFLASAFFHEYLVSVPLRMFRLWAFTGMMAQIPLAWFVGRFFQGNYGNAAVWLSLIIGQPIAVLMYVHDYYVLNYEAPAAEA
In words: In-vitro DGAT1 assay (hDGAT1 microsomes from Sf9 cells, 14C oleoyl CoA, triglyceride formation). Format: biochemical. As to conditions: At 1 μM. The method, then: In-vitro Protocol for DGAT1 Assay
Sf9 Culture and Treatment
Sf9 cells were grown in T25 flasks containing Graces's Insect media with 10% FBS with antibiotic (100 units/mL penicillin, 100 μg/mL streptomycin sulphate, 0.25 μg/mL Amptotericin B as Fungizone) grown in a 27° C. incubator:
hDGAT1ORF expression clone (RZPDo839C09146 in pDEST vector) was obtained from RZPD, Germany. hDGAT1 bacmid DNA was obtained by transformation of the hDGAT expression clone into DH10Bac E. coli competent cells. Approximately 1 μg of hDGAT1 bacmid DNA was infected into Sf9 cells with Cellfectin (Invitrogen) reagent. Following infection, Sf9 cells were incubated at 27° C. for 30 minutes. Five hours after infection, the media was replaced with growth media containing antibiotic (100 units/mL penicillin, 100 μg/mL streptomycin sulphate, 0.25 μg/mL Amptotericin B as Fungizone) and incubated at 27° C. for 72 hours. The supernatant containing the virus was centrifuged at 1500×g for 5 minutes, passed through 0.22 μm filter, and subsequently stored at 4° C. The virus was further amplified three more times by re-infection of Sf9 cells and the viral titer was determined by plaque assay.
Preparation of DGAT1 Microsomes from Sf9 Cells
Sf9 cells were seeded in spinner flasks on day 0 at a cell density of 1×10^6 and infected on day 1 with hDGAT1 baculovirus at a multiplicity of infection (MOI) of 5 and a cell density of 2×10^6. On day 3 (or 66-72 hours), cells were harvested and centrifuged at 2500×g for 10 minutes. Pellet was resuspended in lysis buffer (100 mM sucrose, 50 mM KCl, 40 mM KH2PO4, 30 mM EDTA, pH 7.2) and passed through 21-gauge needle approximately 10 times. The mixture was centrifuged at 12,000 rpm in a Sigma 12158-H rotor at 4° C. for 30 minutes. The supernatant was subjected to centrifugation at 35,000 rpm in a Beckman Ti-45 rotor at 4° C. for 1 hour. The resultant pellet containing the microsomes were resuspended overnight in 1 mL of lysis buffer and total protein concentration was estimated using Bradford Reagent. Microsomes were aliquoted and stored at −20° C.
Measurement of DGAT1 Activity
Frozen aliquots of hDGAT1 containing microsomes were thawed (5-10 mg/mL total protein) on ice and diluted to a working stock of 1 mg/mL with DGAT Assay Buffer (DAB). The DGAT reaction assay was performed by following the procedure described in U.S. Pat. No. 6,607,893 with some modifications that are described below.
Preparation of DGAT1 substrate mixture: 1 mL stock solution of DGAT1 substrate mixture contains (i) 5.6 μL of ^14C oleoyl CoA (16.8 nCi) and 35 μL 1,2-dioleoyl-sn-glycerol (409.5 μM) or (ii) 5.6 μL of ^14C oleoyl CoA (16.8 nCi) and 105 μL 1,2-dioleoyl-sn-glycerol (1228.5 μM) or (iii) 5.6 μL of ^14C oleoyl CoA (16.8 nCi) and 140 μL 1,2-dioleoyl-sn-glycerol (1638 μM).
1,2-sn-dioleoylglycerol substrate concentration in the 1 mL stock solution of DGAT1 substrate mixture was varied depending on the microsome concentration used in the assay reaction. 1,2-dioleoyl-sn-glycerol stock (19.5 mM) was prepared by dissolving 25 mg of 1,2-dioleoyl-sn-glycerol (Sigma, US) in 2060 μL of acetone. The assay was performed in duplicates in a reaction volume of 100 μL. The reaction volume consisted of: • (i) 27.5 μL of DGAT assay buffer (0.25M Sucrose, 1 mM EDTA (pH 8.0), 150 mM Tris-HCl, pH 7.4, 1.25 mg/mL, fatty acid free BSA), • (ii) 10 μL of compound, of present invention or standard (dissolved in DMSO and diluted to 10× with DAB and screened at 10 μM, 5 μM and 1 μM), • (iii) 60 μL DGAT1 substrate mixture taken from a 1 mL stock (16.8 nCi of ^14C oleoyl CoA and 409.5 μM or 1228.5 μM or 1638 μM of 1,2-dioleyl-sn-glycerol), • (iv) 2.5-10 μL of 1 mg/mL of microsomes (the amount of assay buffer was varied depending upon the concentration of microsome to make up the volume to 100 μL). Procedure:
The reaction was started by the addition of 2.5-10 μL of 1 mg/mL of microsomes (iv) to a mixture of (i), (ii) and (iii), vortexed and incubated at 37° C. for 10 minutes. […]
As for `Cc1ccc(Cl)cc1NC(=O)Nc1ccc(-c2cc(C(=O)N[C@H](C(=O)O)C(C)C)on2)cc1` [Example 195, (S)-2-(3-(4-(3-(5-chloro-2-methylphenyl)ureido)phenyl)isoxazole-5-carboxamido)-3-methylbutanoic acid], the inhibition (usually how much of the control response was suppressed) at 1 µM lay in the range of 75 to 100%. For `CC(C)[C@H](NC(=O)c1cc(-c2ccc(NC(=O)Nc3ccc(F)cc3C(F)(F)F)cc2)no1)C(=O)O` [Example 213, (S)-2-(3-(4-(3-(4-fluoro-2-(trifluoromethyl)phenyl)ureido)phenyl)isoxazole-5-carboxamido)-3-methylbutanoic acid], the inhibition at 1 µM was 50 to 75%.

Compound `Cc1cc(OC(F)(F)F)ccc1NC(=O)Nc1ccc(-c2cc(C(=O)NC(C(=O)O)C(C)C)on2)cc1` (centres unmarked) [Example 295, 3-methyl-2-(3-(4-(3-(2-methyl-4-(trifluoromethoxy)phenyl)ureido)phenyl)isoxazole-5-carboxamido)butanoic acid] gave an inhibition at 1 µM of 75 to 100%.

`O=C(Nc1ccc(-c2cc(C(=O)N3CCC[C@@H]3C(=O)O)on2)cc1)Nc1ccccc1F` [Example 260, (R)-1-(3-(4-(3-(2-Fluorophenyl)ureido)phenyl)isoxazole-5-carbonyl) pyrrolidine-2-carboxylic acid] had an inhibition at 1 µM of 50 to 75%. In turn, `CC(C)C(NC(=O)c1cc(-c2ccc(OCc3ccccc3)cc2)no1)C(=O)O` (centres unmarked) [Example 322, 2-(3-(4-(Benzyloxy)phenyl)isoxazole-5-carboxamido)-3-methylbutanoic acid] returned an inhibition at 1 µM of 0 to 50%. Regarding `CC(C)[C@H](NC(=O)c1csc(-c2ccc(NC(=O)Nc3ccccc3Cl)cc2)n1)C(=O)O` [Example 369, (S)-2-(2-(4-(3-(2-Chlorophenyl)ureido)phenyl)thiazole-4-carboxamido)-3-methylbutanoic acid], the inhibition at 1 µM fell in the range of 0 to 50%.

The same assay, now with this note: At 5 μM.
As to `COC(=O)[C@@H](NC(=O)c1nc(-c2ccc(NC(=O)Nc3ccccc3F)cc2)no1)C(C)C` [Example 348, (S)-methyl 2-(3-(4-(3-(2-fluorophenyl)ureido)phenyl)-1,2,4-oxadiazole-5-carboxamido)-3-methylbutanoate], the inhibition at 5 µM lay in the range of 0 to 50%. As for `COC(=O)[C@@H](NC(=O)c1nc(-c2ccc(NC(=S)NCc3ccccc3)cc2)no1)C(C)C` [Example 356, (S)-methyl 2-(3-(4-(3-benzylthioureido)phenyl)-1,2,4-oxadiazole-5-carboxamido)-3-methylbutanoate], the inhibition at 5 µM was 50 to 75%. For `COC(=O)C(NC(=O)c1cc(-c2ccc(NC(=O)Nc3cccc(F)c3)cc2)no1)C(C)C` (centres unmarked) [Example 151, Methyl 2-(3-(4-(3-(3-fluorophenyl)ureido)phenyl)isoxazole-5-carboxamido)-3-methylbutanoate], the inhibition at 5 µM was 50 to 75%. The compound `COC(=O)[C@@H](NC(=O)c1cc(-c2ccc(NC(=O)Nc3ccccc3F)cc2F)no1)C(C)C` [Example 143, (S)-methyl 2-(3-(2-fluoro-4-(3-(2-fluorophenyl)ureido)phenyl)isoxazole-5-carboxamido)-3-methylbutanoate] came in with an inhibition at 5 µM of 50 to 75%. Same read-out and setting: next, `Cc1ccc(NC(=O)Nc2ccc(-c3noc(C(=O)N[C@H](C(=O)O)C(C)C)n3)cc2)cc1` [Example 347, (S)-3-Methyl-2-(3-(4-(3-p-tolylureido)phenyl)-1,2,4-oxadiazole-5-carboxamido)butanoic acid]: 50 to 75%; `COC(=O)[C@@H](NC(=O)c1cc(-c2ccc(NC(=O)Nc3ccc(F)cc3F)cc2F)no1)C(C)C` [Example 141, (S)-Methyl 2-(3-(4-(3-(2,4-difluorophenyl)ureido)-2-fluorophenyl)isoxazole-5-carboxamido)-3-methylbutanoate]: 0 to 50%.

The assay is the same for the next values; noted with them: At 10 μM.
As for `CC(C)[C@H](NC(=NO)c1cc(-c2ccc(Nc3nc4ccc(F)cc4s3)cc2)no1)C(=O)O` [Example 8, (S)-2-({3-[4-(6-Fluoro-benzothiazol-2-ylamino)-phenyl]-N-hydroxy-isoxazole-5-carboximidoyl}-amino)-3-methyl-butyric acid], the inhibition at 10 µM lay in the range of 50 to 75%. The same measure, in the same setting: next, `O=C(O)[C@@H]1CCCN1C(=O)c1cc(-c2cccc(Nc3nc4ccc(F)cc4s3)c2)no1` [Example 35, (S)-1-{3-[3-(6-Fluoro-benzothiazol-2-ylamino)-phenyl]-isoxazole-5-carbonyl}-pyrrolidine-2-carboxylic acid]: 0 to 50%; `COC(=O)[C@@H](NC(=S)c1cc(-c2cccc(Nc3nc4ccc(F)cc4s3)c2)no1)C(C)C` [Example 24, (S)-2-({3-[3-(6-Fluoro-benzothiazol-2-ylamino)-phenyl]-isoxazole-5-carbothioyl}-amino)-3-methyl-butyric acid methyl ester]: 0 to 50%. The same measure, in the same setting: next, `COC(=O)[C@H](CC(C)C)NC(=NO)c1cc(-c2ccc(Nc3nc4ccc(F)cc4s3)cc2)no1` [Example 50, (S)-2-({3-[4-(6-Fluoro-benzothiazol-2-ylamino)-phenyl]-N-hydroxy-isoxazole-5-carboximidoyl}-amino)-4-methyl-pentanoic acid methyl ester]: 0 to 50%; `COC(=O)[C@@H]1CCCN1C(=S)c1cc(-c2cccc(Nc3nc4ccc(F)cc4s3)c2)no1` [Example 36, (S)-1-{3-[3-(6-Fluoro-benzothiazol-2-ylamino)-phenyl]-isoxazole-5-carbothioyl}-pyrrolidine-2-carboxylic acid methyl ester]: 50 to 75%.

As to `COC(=O)C1(NC(=O)c2cc(-c3ccc(NC(=O)Nc4ccc(F)cc4)cc3)no2)CCCC1` [Example 119, Methyl 1-(3-(4-(3-(4-fluorophenyl)ureido)phenyl)isoxazole-5-carboxamido)cyclopentanecarboxylate], the inhibition at 10 µM lay within 50 to 75%. Same read-out and setting: next, `CC(C)C(NC(=O)c1cc(-c2ccc(NC(=O)Nc3c(F)cccc3F)cc2)no1)C(=O)O` (centres unmarked) [Example 124, 2-(3-(4-(3-(2,6-difluorophenyl)ureido)phenyl)isoxazole-5-carboxamido)-3-methylbutanoic acid]: 75 to 100%; `COC(=O)C(CC(C)C)NC(=O)c1cc(-c2ccc(NC(=O)NCc3ccccc3)cc2)no1` (centres unmarked) [Example 109, Methyl 2-(3-(4-(3-benzylureido)phenyl)isoxazole-5-carboxamido)-4-methylpentanoate]: 0 to 50%.
